# In the NIST ThermoML archive (doi:10.1016/j.fluid.2014.11.020):
# ± gives the expanded uncertainty stated by the source.
# Assay: activity coefficient (dimensionless); of the first substance listed, at infinite dilution; xn = mol fraction of the nth substance listed
# Details: Liquid, Chromatography, x1 = 0
SMILES,activity coefficient (323.15 K),activity coefficient (333.15 K),activity coefficient (343.15 K)
Cc1ccccc1 [toluene] + CCCCCCCCn1cc[n+](COCCCOC[n+]2ccn(CCCCCCCC)c2C)c1C.O=S(=O)([N-]S(=O)(=O)C(F)(F)F)C(F)(F)F.O=S(=O)([N-]S(=O)(=O)C(F)(F)F)C(F)(F)F,0.54 ± 0.04,0.53 ± 0.04,0.54 ± 0.04
Cc1ccccc1 [toluene] + CCCOC[n+]1ccc(N(C)C)cc1.O=S(=O)([N-]S(=O)(=O)C(F)(F)F)C(F)(F)F,0.99 ± 0.06,1.04 ± 0.07,1.05 ± 0.07
Cc1ccccc1 [toluene] + CCCOC[n+]1ccn(C)c1.F[B-](F)(F)F,6.06 ± 0.41,6.02 ± 0.41,5.98 ± 0.41
Cc1ccccc1 [toluene] + CCCOC[n+]1ccn(C)c1.N#C[N-]C#N,3.6 ± 0.25,3.65 ± 0.25,3.77 ± 0.26
Cc1ccccc1 [toluene] + CCCOC[n+]1ccn(C)c1.O=S(=O)([N-]S(=O)(=O)C(F)(F)F)C(F)(F)F,1.7 ± 0.11,1.68 ± 0.11,1.69 ± 0.11
Cc1ccccc1 [toluene] + CCCOC[n+]1ccn(Cc2ccccc2)c1.F[B-](F)(F)F,3.12 ± 0.21,3.03 ± 0.21,3.04 ± 0.21
Cc1ccccc1 [toluene] + CCCOC[n+]1ccn(Cc2ccccc2)c1.N#C[N-]C#N,2.29 ± 0.16,2.26 ± 0.15,2.25 ± 0.15
Cc1ccccc1 [toluene] + CCCOC[n+]1ccn(Cc2ccccc2)c1.O=S(=O)([N-]S(=O)(=O)C(F)(F)F)C(F)(F)F,1.09 ± 0.07,0.97 ± 0.06,0.96 ± 0.06
Cc1ccccc1 [toluene] + CN(C)c1cc[n+](COCCCOC[n+]2ccc(N(C)C)cc2)cc1.O=S(=O)([N-]S(=O)(=O)C(F)(F)F)C(F)(F)F.O=S(=O)([N-]S(=O)(=O)C(F)(F)F)C(F)(F)F,0.92 ± 0.06,0.94 ± 0.06,0.96 ± 0.06
Cc1ccccc1 [toluene] + Cn1cc[n+](COCCCOC[n+]2ccn(C)c2)c1.N#C[N-]C#N.N#C[N-]C#N,5.63 ± 0.38,5.58 ± 0.38,5.49 ± 0.37
Cc1ccccc1 [toluene] + Cn1cc[n+](COCCCOC[n+]2ccn(C)c2)c1.O=S(=O)([N-]S(=O)(=O)C(F)(F)F)C(F)(F)F.O=S(=O)([N-]S(=O)(=O)C(F)(F)F)C(F)(F)F,1.46 ± 0.1,1.48 ± 0.1,1.46 ± 0.1
Cc1ccccc1 [toluene] + N#C[N-]C#N.N#C[N-]C#N.c1ccc(Cn2cc[n+](COCCCOC[n+]3ccn(Cc4ccccc4)c3)c2)cc1,5.08 ± 0.35,4.97 ± 0.34,4.8 ± 0.33
ClC(Cl)Cl [trichloromethane] + CCCCCCCCn1cc[n+](COCCC)c1C.N#C[N-]C#N,0.27 ± 0.03,0.3 ± 0.03,0.33 ± 0.03
ClC(Cl)Cl [trichloromethane] + CCCCCCCCn1cc[n+](COCCC)c1C.O=S(=O)([N-]S(=O)(=O)C(F)(F)F)C(F)(F)F,0.51 ± 0.04,0.49 ± 0.04,0.53 ± 0.04
ClC(Cl)Cl [trichloromethane] + CCCCCCCCn1cc[n+](COCCCOC[n+]2ccn(CCCCCCCC)c2C)c1C.N#C[N-]C#N.N#C[N-]C#N,0.24 ± 0.03,0.26 ± 0.03,0.27 ± 0.03
ClC(Cl)Cl [trichloromethane] + CCCCCCCCn1cc[n+](COCCCOC[n+]2ccn(CCCCCCCC)c2C)c1C.O=S(=O)([N-]S(=O)(=O)C(F)(F)F)C(F)(F)F.O=S(=O)([N-]S(=O)(=O)C(F)(F)F)C(F)(F)F,0.39 ± 0.03,0.38 ± 0.03,0.39 ± 0.03

SMILES,activity coefficient (323.15 K),activity coefficient (333.15 K),activity coefficient (343.15 K)
ClC(Cl)Cl [trichloromethane] + CCCOC[n+]1ccc(N(C)C)cc1.O=S(=O)([N-]S(=O)(=O)C(F)(F)F)C(F)(F)F,0.71 ± 0.05,0.75 ± 0.05,0.79 ± 0.05
ClC(Cl)Cl [trichloromethane] + CCCOC[n+]1ccn(C)c1.F[B-](F)(F)F,1.74 ± 0.12,1.8 ± 0.12,1.87 ± 0.13
ClC(Cl)Cl [trichloromethane] + CCCOC[n+]1ccn(C)c1.N#C[N-]C#N,0.8 ± 0.05,0.85 ± 0.05,0.92 ± 0.06
ClC(Cl)Cl [trichloromethane] + CCCOC[n+]1ccn(C)c1.O=S(=O)([N-]S(=O)(=O)C(F)(F)F)C(F)(F)F,1.03 ± 0.06,1.06 ± 0.07,1.06 ± 0.07
ClC(Cl)Cl [trichloromethane] + CCCOC[n+]1ccn(Cc2ccccc2)c1.F[B-](F)(F)F,1.16 ± 0.07,1.15 ± 0.07,1.2 ± 0.08
ClC(Cl)Cl [trichloromethane] + CCCOC[n+]1ccn(Cc2ccccc2)c1.N#C[N-]C#N,0.62 ± 0.04,0.65 ± 0.04,0.69 ± 0.05
ClC(Cl)Cl [trichloromethane] + CCCOC[n+]1ccn(Cc2ccccc2)c1.O=S(=O)([N-]S(=O)(=O)C(F)(F)F)C(F)(F)F,0.73 ± 0.05,0.65 ± 0.04,0.66 ± 0.05
ClC(Cl)Cl [trichloromethane] + CN(C)c1cc[n+](COCCCOC[n+]2ccc(N(C)C)cc2)cc1.O=S(=O)([N-]S(=O)(=O)C(F)(F)F)C(F)(F)F.O=S(=O)([N-]S(=O)(=O)C(F)(F)F)C(F)(F)F,0.67 ± 0.05,0.69 ± 0.05,0.7 ± 0.05
ClC(Cl)Cl [trichloromethane] + Cn1cc[n+](COCCCOC[n+]2ccn(C)c2)c1.N#C[N-]C#N.N#C[N-]C#N,1.02 ± 0.06,1.08 ± 0.07,1.14 ± 0.07
ClC(Cl)Cl [trichloromethane] + Cn1cc[n+](COCCCOC[n+]2ccn(C)c2)c1.O=S(=O)([N-]S(=O)(=O)C(F)(F)F)C(F)(F)F.O=S(=O)([N-]S(=O)(=O)C(F)(F)F)C(F)(F)F,0.87 ± 0.06,0.89 ± 0.06,0.71 ± 0.05
ClC(Cl)Cl [trichloromethane] + N#C[N-]C#N.N#C[N-]C#N.c1ccc(Cn2cc[n+](COCCCOC[n+]3ccn(Cc4ccccc4)c3)c2)cc1,1.22 ± 0.08,1.2 ± 0.08,1.33 ± 0.09
CCCCCCCCCCCCC [tridecane] + CCCOC[n+]1ccc(N(C)C)cc1.O=S(=O)([N-]S(=O)(=O)C(F)(F)F)C(F)(F)F,102 ± 7,96.4 ± 6.6,81.9 ± 5.6
CCCCCCCCCCCCC [tridecane] + CCCOC[n+]1ccn(C)c1.F[B-](F)(F)F,1640 ± 110,1630 ± 110,1630 ± 110
CCCCCCCCCCCCC [tridecane] + CCCOC[n+]1ccn(C)c1.N#C[N-]C#N,1150 ± 79,1030 ± 71,916 ± 63
CCCCCCCCCCCCC [tridecane] + CCCOC[n+]1ccn(C)c1.O=S(=O)([N-]S(=O)(=O)C(F)(F)F)C(F)(F)F,201 ± 14,165 ± 11,147 ± 10
CCN(CC)CC [triethylamine] + CCCCCCCCn1cc[n+](COCCC)c1C.O=S(=O)([N-]S(=O)(=O)C(F)(F)F)C(F)(F)F,1.2 ± 0.08,,
